# According to patent US20260014147A1, “STAT6 DEGRADERS” (Gilead Sciences, Inc., priority 2024, published 2026):
# Target: T1, STAT6 (endogenous, HiBiT-tagged) in HeLa LgBiT clone 4.14 cells (Homo sapiens, UniProt P42226)
# T1 construct: These cells express endogenous STAT6; host or cells: HeLa LgBiT clone 4.14
# T1 sequence (P42226 1-847): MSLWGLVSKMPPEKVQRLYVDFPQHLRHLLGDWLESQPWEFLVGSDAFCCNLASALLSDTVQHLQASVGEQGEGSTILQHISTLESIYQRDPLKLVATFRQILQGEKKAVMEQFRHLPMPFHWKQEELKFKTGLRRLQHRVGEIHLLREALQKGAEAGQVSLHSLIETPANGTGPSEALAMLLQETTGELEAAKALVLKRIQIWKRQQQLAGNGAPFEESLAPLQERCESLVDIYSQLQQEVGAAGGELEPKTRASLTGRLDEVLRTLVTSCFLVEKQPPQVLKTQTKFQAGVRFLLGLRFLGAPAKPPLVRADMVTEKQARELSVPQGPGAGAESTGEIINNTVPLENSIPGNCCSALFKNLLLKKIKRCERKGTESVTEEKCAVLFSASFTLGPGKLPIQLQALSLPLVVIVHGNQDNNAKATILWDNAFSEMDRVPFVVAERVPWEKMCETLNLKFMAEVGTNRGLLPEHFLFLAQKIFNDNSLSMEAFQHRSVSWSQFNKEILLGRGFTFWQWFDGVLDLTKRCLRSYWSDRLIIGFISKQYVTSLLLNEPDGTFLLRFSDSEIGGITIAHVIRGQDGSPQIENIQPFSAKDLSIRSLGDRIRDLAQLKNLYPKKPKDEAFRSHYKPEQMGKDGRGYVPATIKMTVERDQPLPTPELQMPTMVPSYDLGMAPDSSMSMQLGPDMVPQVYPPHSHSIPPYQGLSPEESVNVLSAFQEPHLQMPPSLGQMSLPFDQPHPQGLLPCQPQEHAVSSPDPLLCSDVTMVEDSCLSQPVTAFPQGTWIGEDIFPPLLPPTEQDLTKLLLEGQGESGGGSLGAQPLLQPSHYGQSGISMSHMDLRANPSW
# Assay: STAT6 Degrader Assay (HiBiT based, HeLa LgBiT clone 4.14 cells, luminescence, DC50)
# Assay type: cell-based
# Settings: geometric mean; for Emax: Emax provided for test compounds with <80% Emax (and 2c15), read-out: STAT6 degradation Emax; for DC50: DC50 provided for test compounds with >80% Emax, read-out: STAT6 degradation DC50
# Method: This was a HiBit based assay. A HeLa cell line stably transfected with a small protein, LgBit (Large Bit) was obtained from Promega. These cells express endogenous STAT6. A small 11 amino acid gene sequence (HiBiT) was inserted in the STAT6 gene using CRISPR technology. Once STAT6 protein is expressed in the cells, the HiBiT sequence will bind the LgBit in the cells resulting in a functional NanoBiT protein, giving a luminescent tag to STAT6. Single cell clones were prepared and the clone 4.14 was selected for the assay based on that clone showing high luminescence, high STAT6 phosphorylation upon stimulation with IL-4, and inhibition of luminescence when cells were treated with STAT6 siRNA. HeLa LgBiT clone 4.14 cells were suspended in DMEM with 10% FCS, 1% Pen/Strep, Na-pyrovate and Hygromycin B, at a concentration of […]. 5000 cells were added pr well of a 384 well plate and 20 nL of compound was added by Echo® liquid handler. NN6394A (terfenadine, a toxic compound) was added to control wells at 50 µM concentration to establish the assay window. In these wells the cells are dead which equals 100% degradation of STAT6. After 4-24 h of incubation at 37° C. under 5% CO2/95% air, […] substrate (Nano-GLO®) was added to the wells and the plates were centrifuged and incubated for 0.5 h. The luminescence in the wells as a measure of non-degraded STAT6 was measured in a plate reader (BMG Pherastar FSX). The dose-response curves for Examples 2a2, 2t1, 2 h3, and 2r1 are shown below (where percent degradation is plotted vs. test compound concentration in M on a log-scale).
SMILES,Emax [%],DC50 [nM]
"COCc1nc2cc(-c3ccnc4c3cc(CN3CCC(c5ccc(C(=O)N6CCC(CN7CCN(c8ccc(NC9CCC(=O)NC9=O)cc8F)C[C@@H]7C)CC6)cc5)CC3)n4C)ccc2[nH]1 (stereo partly drawn) [Example 2f4, 3-((3-fluoro-4-((S)-4-((1-(4-(1-((4-(2-(methoxymethyl)-1H-benzo[d]imidazol-5-yl)-1-methyl-1H-pyrrolo[2,3-b]pyridin-2-yl)methyl)piperidin-4-yl)benzoyl)piperidin-4-yl)methyl)-3-methylpiperazin-1-yl)phenyl)-amino)piperidine-2,6-dione]",50 to 60,–
"C[C@H]1CN(c2ccc(NC3CCC(=O)NC3=O)cc2F)CCN1CC1CCN(C(=O)c2ccc(C3CCN(Cc4cc5c(-c6ccc7[nH]ncc7c6)ccnc5n4C)CC3)cc2)CC1 (stereo partly drawn) [Example 2f5, 3-((4-((S)-4-((1-(4-(1-((4-(1H-indazol-5-yl)-1-methyl-1H-pyrrolo[2,3-b]pyridin-2-yl)methyl)piperidin-4-yl)benzoyl)piperidin-4-yl)methyl)-3-methylpiperazin-1-yl)-3-fluorophenyl)amino)piperidine-2,6-dione]",50 to 60,–
"C[C@@H]1CN(c2ccc(NC3CCC(=O)NC3=O)cc2F)CCN1CC1CCN(C(=O)c2ccc(C3CCN(Cc4cc5c(-c6ccc(N)nc6)ccnc5n4C)CC3)cc2)CC1 (stereo partly drawn) [Example 2f6, 3-((4-((R)-4-((1-(4-(1-((4-(6-aminopyridin-3-yl)-1-methyl-1H-pyrrolo[2,3-b]pyridin-2-yl)-methyl)-piperidin-4-yl)benzoyl)piperidin-4-yl)methyl)-3-methylpiperazin-1-yl)-3-fluorophenyl)amino)-piperidine-2,6-dione]",–,38.8
"COCc1nc2cc(-c3ccnc4c3cc(CN3CCC(c5ccc(C(=O)N6CCC(CN7CCN(c8ccc(NC9CCC(=O)NC9=O)cc8F)C[C@H]7C)CC6)cc5)CC3)n4C)ccc2[nH]1 (stereo partly drawn) [Example 2f7, 3-((3-fluoro-4-((R)-4-((1-(4-(1-((4-(2-(methoxymethyl)-1H-benzo[d]imidazol-5-yl)-1-methyl-1H-pyrrolo[2,3-b]pyridin-2-yl)methyl)piperidin-4-yl)benzoyl)piperidin-4-yl)methyl)-3-methylpiperazin-1-yl)phenyl)-amino)piperidine-2,6-dione]",–,6.6
"C[C@@H]1CN(c2ccc(NC3CCC(=O)NC3=O)cc2F)CCN1CC1CCN(C(=O)c2ccc(C3CCN(Cc4cc5c(-c6ccc7[nH]ncc7c6)ccnc5n4C)CC3)cc2)CC1 (stereo partly drawn) [Example 2f8, 3-((4-((R)-4-((1-(4-(1-((4-(1H-indazol-5-yl)-1-methyl-1H-pyrrolo[2,3-b]pyridin-2-yl)methyl)-piperidin-4-yl)benzoyl)piperidin-4-yl)methyl)-3-methylpiperazin-1-yl)-3-fluorophenyl)amino)piperidine-2,6-dione]",–,19.1
"Cn1c(CN2CCC(c3ccc(C(=O)N4CCC(CN5CCC(n6ncc7c(NC8CCC(=O)NC8=O)cccc76)CC5)CC4)cc3)CC2)cc2c(-c3ccc4[nH]ncc4c3)ccnc21 (stereo not shown) [Example 2g1, 3-((1-(1-((1-(4-(1-((4-(1H-indazol-5-yl)-1-methyl-1H-pyrrolo[2,3-b]pyridin-2-yl)methyl)-piperidin-4-yl)benzoyl)piperidin-4-yl)methyl)piperidin-4-yl)-1H-indazol-4-yl)amino)piperidine-2,6-dione]",< 20,–
"C[C@@H](c1cc2c(-c3ccc(N)nc3)ccnc2n1C)N1CCC(c2ccc(C(=O)N3CCN(CC4CCN(c5ccc(NC6CCC(=O)NC6=O)cc5F)CC4)CC3)cc2)CC1 (stereo partly drawn) [Example 2g63, 3-((4-(4-((4-(4-(1-((S)-1-(4-(6-aminopyridin-3-yl)-1-methyl-1H-pyrrolo[2,3-b]pyridin-2-yl)ethyl)piperidin-4-yl)benzoyl)piperazin-1-yl)methyl)piperidin-1-yl)-3-fluorophenyl)amino)piperidine-2,6-dione]",–,48.3
"Cn1c(CN2CCC(c3ccc(C(=O)N4CCC(CN5CCC(N6CCC(c7ccc(NC8CCC(=O)NC8=O)cc7F)CC6)C(F)(F)C5)CC4)cc3)CC2)cc2c(-c3ccc4[nH]ncc4c3)ccnc21 (stereo not shown) [Example 2h1, 3-((4-(1′-((1-(4-(1-((4-(1H-indazol-5-yl)-1-methyl-1H-pyrrolo[2,3-b]pyridin-2-yl)methyl)-piperidin-4-yl)benzoyl)piperidin-4-yl)methyl)-3′, 3′-difluoro-[1,4′-bipiperidin]-4-yl)-3-fluorophenyl)-amino)piperidine-2,6-dione]",–,66.3

# Next, values leading:
Emax [%],DC50 [nM],SMILES
–,133,"Cn1c(CN2CCC(c3ccc(C(=O)N4CCC(CN5CCC(N6CCC(c7ccc(NC8CCC(=O)NC8=O)cc7F)CC6)C(F)(F)C5)CC4)cc3)CC2)cc2c(-c3ccc(N)nc3)ccnc21 (stereo not shown) [Example 2h2, 3-((4-(1′-((1-(4-(1-((4-(6-aminopyridin-3-yl)-1-methyl-1H-pyrrolo[2,3-b]pyridin-2-yl)-methyl)piperidin-4-yl)benzoyl)piperidin-4-yl)methyl)-3′, 3′-difluoro-[1,4′-bipiperidin]-4-yl)-3-fluoro-phenyl)amino)piperidine-2,6-dione]"
–,54.8,"COCc1nc2cc(-c3ccnc4c3cc(CN3CCC(c5ccc(C(=O)N6CCC(CN7CCC(N8CCC(c9ccc(NC%10CCC(=O)NC%10=O)cc9F)CC8)C(F)(F)C7)CC6)cc5)CC3)n4C)ccc2[nH]1 (stereo not shown) [Example 2h3, 3-((4-(3′, 3′-difluoro-1′-((1-(4-(1-((4-(2-(methoxymethyl)-1H-benzo[d]imidazol-5-yl)-1-methyl-1H-pyrrolo[2,3-b]pyridin-2-yl)methyl)piperidin-4-yl)benzoyl)piperidin-4-yl)methyl)-[1,4′-bipiperidin]-4-yl)-3-fluorophenyl)amino)piperidine-2,6-dione]"
40 to 50,–,"COc1cc(N2CCN(CC3CCN(C(=O)c4ccc(C5CCN(Cc6cc7c(-c8ccc9[nH]ncc9c8)ccnc7n6C)CC5)cc4)CC3)CC2)c(F)cc1NC1CCC(=O)NC1=O (stereo not shown) [Example 2i1, 3-((4-(4-((1-(4-(1-((4-(1H-indazol-5-yl)-1-methyl-1H-pyrrolo[2,3-b]pyridin-2-yl)methyl)-piperidin-4-yl)benzoyl)piperidin-4-yl)methyl)piperazin-1-yl)-5-fluoro-2-methoxyphenyl)amino)-piperidine-2,6-dione]"
30 to 40,–,"COCc1nc2cc(-c3ccnc4c3cc([C@H](C)N3CCC(c5ccc(C(=O)N6CCC(CN7CCN(c8ccc(NC9CCC(=O)NC9=O)cc8C#N)CC7)CC6)cc5)CC3)n4C)ccc2[nH]1 (stereo partly drawn) [Example 2i2, 5-((2,6-dioxopiperidin-3-yl)amino)-2-(4-((1-(4-(1-((S)-1-(4-(2-(methoxymethyl)-1H-benzo[d]-imidazol-5-yl)-1-methyl-1H-pyrrolo[2,3-b]pyridin-2-yl)ethyl)piperidin-4-yl)benzoyl)piperidin-4-yl)methyl)-piperazin-1-yl)benzonitrile]"
30 to 40,–,"C[C@@H](c1cc2c(-c3ccc(N)nc3)ccnc2n1C)N1CCC(c2ccc(C(=O)N3CCC(CN4CCN(c5ccc(NC6CCC(=O)NC6=O)cc5C#N)CC4)CC3)cc2)CC1 (stereo partly drawn) [Example 2i3, 2-(4-((1-(4-(1-((S)-1-(4-(6-aminopyridin-3-yl)-1-methyl-1H-pyrrolo[2,3-b]pyridin-2-yl)-ethyl)-piperidin-4-yl)benzoyl)piperidin-4-yl)methyl)piperazin-1-yl)-5-((2,6-dioxopiperidin-3-yl)amino)-benzonitrile]"
